Results as given in patent US20100015126A1, “Methods of Binding of Cross-Beta Structures By Chaperones” (priority 2006, published 2010).
One block for each substance: values may come before it.

Target: T1, BiP-Sepharose (Homo sapiens, UniProt P11021)
T1 construct: The human BiP gene except the signal peptide encoding region was obtained from Geneart (Germany); linker […]; made in house; host or cells: HEK 293E cells, transient transfection, PABC674 vector; secreted into the medium
Assay: BiP-Sepharose extraction of proteins from patient plasma, serum, synovial fluid and mass-spectrometric identification
Assay type: binding
Description: BiP was coated on CNBr-Sepharose (GE-Healthcare, Amersham Biosciences). Immobilization of BiP was performed essentially as described elsewhere in this application for NHS-Sepharose. CNBr-matrix was dissolved at 200 mg/ml in 1 mM HCl and treated the same as the NHS-matrix, except for an additional 5 minutes activation step in 1 mM HCl on a roller device before washing in this buffer. BiP was diluted in immobilization buffer (50 mM NaCl and 40 mM NaHCO3) to a concentration of 820 μg/ml. A total volume of 2 ml BiP solution (1640 μg BiP) was incubated with 360 mg beads. Negative control matrix was exposed to immobilization buffer, only. After overnight immobilization matrix was blocked with Tris and washed.
Six samples were incubated with the BiP-Sepharose, IgIV-Sepharose and the control-Sepharose: Normal pooled plasma, plasma of a patient I or of a patient II, with AL amyloidosis, serum of a patient III with RA (Rheumatoid Factor (RF) titer 682), control serum and synovial fluid of a patient IV with RA (RF titer 23). All samples were diluted 20× in HBS and applied to 200 μl beads in two volumes of 500 μl. One volume was incubated for 4 h at RT and supernatant was discarded after centrifugation (2 minutes at 1400 rpm). Subsequently, the second volume was applied to the same matrix and incubated overnight on a roller device at 4° C. […] To collect the eluates, the matrices were centrifuged and the two eluates were pooled for each sample.
Protein digests were desalted as described (Rappsilber et al., 2003), vacuum dried and dissolved in 2.5% formic acid.
For analysis of peptide mixtures, an Agilent 1100 HPLC system (Agilent Technologies) connected to a Thermo Finnigan LTQ-MS (Thermo Electron, Bremen, Germany) was used. Protein digests were injected on a trap column (Reprosil C18 RP (Dr Maisch, Germany), 20 mm×100 μm I.D.) at 5 μl/minute. Subsequently, the peptides were transferred with a split-reduced flow rate of 100 nL/minute solvent A (0.1 M acetic acid) on the analytical column (Reprosil C18 RP, 20 cm×50 μm I.D.). […] The column effluent was directly introduced into the ESI source of the mass spectrometer via a butt-connected nano-ESI emitter (New Objectives, Woburn, Mass.). The mass spectrometer was operated in the positive ion mode and parent ions were selected for fragmentation in data-dependent mode.
After mass spectrometric measurements, peak lists were generated using BioWorks software (Thermo Electron, Bremen, Germany). Protein identification was performed using Mascot software (www.matrixscience.com) by searching the IPIhuman database (version 3.24, downloaded from ftp://ftp.ebi.ac.uk/pub/databases/IPI/current) using the following settings: fully tryptic peptides, peptide tolerance 0.8 Da, MS/MS tolerance 0.9 Da, 1 missed cleavage allowed, carbamidomethyl (Cys) and oxidation (Met) as fixed and variable modification, respectively. The Scaffold software package (www.proteomesoftware.com) was used to parse the data and to filter peptides at a confidence level of 95%, allowing only protein identification with at least 2 peptides identified.

[1] = Sample B3: eluate of BiP-Sepharose contacted with AL amyloidosis patient II plasma
[2] = Sample B2: eluate of BiP-Sepharose contacted with AL amyloidosis patient I plasma
[3] = Sample B6: eluate of BiP-Sepharose contacted with RA patient IV synovial fluid
[4] = Sample B4: eluate of BiP-Sepharose contacted with RA patient III serum
[5] = compared to AL amyloidosis patient I
[6] = compared to AL amyloidosis patient II

T1 sequence (P11021 19-654): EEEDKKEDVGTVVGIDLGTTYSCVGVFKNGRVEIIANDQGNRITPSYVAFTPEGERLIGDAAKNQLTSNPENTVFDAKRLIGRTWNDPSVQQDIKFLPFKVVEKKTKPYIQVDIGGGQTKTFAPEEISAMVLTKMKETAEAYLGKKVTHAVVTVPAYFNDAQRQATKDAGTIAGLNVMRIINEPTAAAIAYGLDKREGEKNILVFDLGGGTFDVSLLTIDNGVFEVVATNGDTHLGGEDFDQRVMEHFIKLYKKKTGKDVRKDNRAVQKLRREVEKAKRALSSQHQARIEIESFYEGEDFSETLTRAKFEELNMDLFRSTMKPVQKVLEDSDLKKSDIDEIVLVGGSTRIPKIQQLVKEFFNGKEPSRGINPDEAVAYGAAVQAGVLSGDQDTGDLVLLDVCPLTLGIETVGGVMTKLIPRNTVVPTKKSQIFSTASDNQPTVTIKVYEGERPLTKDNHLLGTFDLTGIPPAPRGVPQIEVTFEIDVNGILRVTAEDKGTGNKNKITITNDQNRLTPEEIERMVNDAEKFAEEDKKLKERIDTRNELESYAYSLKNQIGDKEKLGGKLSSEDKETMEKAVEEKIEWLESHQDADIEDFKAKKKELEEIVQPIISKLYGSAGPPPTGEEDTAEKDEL

- # of peptides in sample A# [1]: 8
Substance: 25 kDa protein/Immunoglobulin lambda locus [IPI00747752]

- # of peptides in sample A# [2]: 1
- # of peptides in sample A# [1]: 1
Substance: 25 kDa protein/immunoglobulin lambda chain/rheumatoid factor G9 light chain (lambda V3)/IGLC1 protein [IPI00154742]

- # of peptides in sample A# [3]: 6
Substance: 26 kDa protein/Immunoglobulin kappa variable 1-5 [IPI00430820]

- # of peptides in sample A# [2]: 1
- # of peptides in sample A# [1]: 1
Substance: 26 kDa protein/immunoglobulin kappa variable 1-5 [IPI00738024]

- # of peptides in sample A# [4]: 9
Substance: 187 kDa protein/Complement component 3 [IPI00164623]

- Specific binding to BiP-Sepharose from normal pooled plasma [5]: specifically bound
- Specific binding to BiP-Sepharose from control serum (compared to RA patient III): specifically bound
Substance: (sero)transferrin [IPI00022463]

- # of peptides in sample A# [4]: 1
Substance: Alpha-1-antitrypsin precursor/Serpin peptidase inhibitor, clade A (alpha-1 antiproteinase, antitrypsin), member 1 [IPI00553177]

- Specific binding to BiP-Sepharose from normal pooled plasma [5]: specifically bound
- Specific binding to BiP-Sepharose from normal pooled plasma [6]: specifically bound
Substance: Alpha-2-macroglobulin [IPI00478003]

- # of peptides in sample A# [2]: 6
Substance: Apolipoprotein E precursor/Apolipoprotein E/Apolipoprotein E3 (Fragment) [IPI00021842]

- # of peptides in sample A# [4]: 7
- Specific binding to BiP-Sepharose from normal pooled plasma [6]: specifically bound
Substance: Complement component 4 binding protein, alpha, C4b-binding protein alpha chain precursor (C4bp) (Proline-rich protein/PRP) [IPI00021727]

- # of peptides in sample A# [1]: 2
Substance: Dynein heavy chain domain 3/KIAA1503 protein (Fragment) [IPI00783464]

- # of peptides in sample A# [2]: 4
Substance: Fc fragment of IgG binding protein (IgGFc-binding protein precursor/FcgammaBP/Fcgamma-binding protein antigen) [IPI00242956]

- # of peptides in sample A# [4]: 4
Substance: Full-length cDNA clone CS0DL004YM19 of B cells (Ramos cell line) of Homo sapiens (Fragment)/Unnamed protein product [IPI00328493]

Substance: GCN1 general control of amino-acid synthesis 1-like 1 (yeast)/GCN1-like protein 1 (HsGCN1) [IPI00001159]
- # of peptides in sample A# [4]: 2

- # of peptides in sample A# [1]: 1
Substance: Hypothetical protein DKFZp686N02209/immunoglobulin heavy constant gamma 1 (G1m marker) [IPI00384938]

- # of peptides in sample A# [1]: 1
- # of peptides in sample A# [4]: 1
Substance: Hypothetical protein LOC651928/Immunoglobulin kappa variable 1-5/IGKV2-24 protein [IPI00440577]

- # of peptides in sample A# [1]: 2
- # of peptides in sample A# [3]: 1
Substance: Hypothetical protein [IPI00784983]

- # of peptides in sample A# [2]: 1
Substance: Hypothetical protein [IPI00807428]

Substance: Hypothetical protein/Heat shock 70 kDa protein 5 (glucose-regulated protein, 78 kDa = GRP78 = BiP = HSPA5) [IPI00003362]
- # of peptides in sample A# [3]: 31

- # of peptides in sample A# [1]: 1
Substance: Hypothetical protein/Ig kappa chain V-II region RPMI 6410 precursor [IPI00550731]

- # of peptides in sample A# [2]: 1
Substance: Hypothetical protein/immunoglobulin lambda locus/immunoglobulin lambda chain C regions (1/2/3)/immunoglobulin lambda variable V2-14/Ig lambda C3 protein (C2 segment protein, C3 segment protein)/Hypothetical protein DKFZp667J0B10 (Fragment) [IPI00760678]
